The values below come from patent US20120157451A1, “RAF INHIBITOR COMPOUNDS AND METHODS OF USE THEREOF” (GENENTECH, INC, priority 2009, published 2012).

pIC50: −log10 of the molar value.

The target of the experiment is T1, V600E full-length B-Raf (Homo sapiens, UniProt P15056, V600E).
T1 construct: made in house; host or cells: Sf9 insect cells (baculovirus)
T1 sequence (P15056 whole entry V600E): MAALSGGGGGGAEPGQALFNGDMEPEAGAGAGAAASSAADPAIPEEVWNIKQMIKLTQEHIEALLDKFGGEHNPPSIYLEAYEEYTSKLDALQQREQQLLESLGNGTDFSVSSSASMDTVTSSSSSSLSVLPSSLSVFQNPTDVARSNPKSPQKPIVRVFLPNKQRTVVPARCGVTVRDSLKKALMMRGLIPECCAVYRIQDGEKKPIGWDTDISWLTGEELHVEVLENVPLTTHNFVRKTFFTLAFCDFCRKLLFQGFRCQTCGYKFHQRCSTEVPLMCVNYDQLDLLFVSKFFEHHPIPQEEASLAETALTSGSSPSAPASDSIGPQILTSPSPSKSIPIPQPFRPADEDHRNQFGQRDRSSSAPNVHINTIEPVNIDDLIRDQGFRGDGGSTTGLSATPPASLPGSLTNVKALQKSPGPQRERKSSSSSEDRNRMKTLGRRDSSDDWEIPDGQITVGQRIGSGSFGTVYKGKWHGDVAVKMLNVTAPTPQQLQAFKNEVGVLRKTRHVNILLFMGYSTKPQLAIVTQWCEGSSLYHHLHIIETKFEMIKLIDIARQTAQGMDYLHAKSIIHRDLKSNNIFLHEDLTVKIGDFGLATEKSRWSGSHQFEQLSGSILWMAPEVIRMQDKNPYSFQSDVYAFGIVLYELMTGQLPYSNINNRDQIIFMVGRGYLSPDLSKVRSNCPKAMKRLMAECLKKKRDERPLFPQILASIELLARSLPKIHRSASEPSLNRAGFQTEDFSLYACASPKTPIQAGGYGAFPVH
In words: B-Raf IC50 assay (incorporation of radiolabeled phosphate from [γ-33P]ATP into FSBA-modified wild-type MEK). Type of experiment: biochemical. To be noted: bound stated. From the text:
Determining the activity of Raf in the sample is possible by a number of direct and indirect detection methods (US 2004/0082014). Activity of human recombinant B-Raf protein may be assessed in vitro by assay of the incorporation of radio labeled phosphate to recombinant MAP kinase (MEK), a known physiologic substrate of B-Raf, according to US 2004/0127496 and WO 03/022840.
Activity of human recombinant B-Raf protein may be assessed in vitro by assay of the incorporation of radio labeled phosphate to recombinant MAP kinase (MEK), a known physiologic substrate of B-Raf, according to US 2004/0127496 and WO 03/022840. Catalytically active human recombinant B-Raf protein is obtained by purification from sf9 insect cells infected with a human B-Raf recombinant baculovirus expression vector.
Incubations were carried out at 22° C. in a Costar 3365 plate (Corning). Prior to the assay, the B-Raf and FSBA-MEK were preincubated together in assay buffer at 1.5× (20 μL of 30 nM and 1.5 μM, respectively) for 15 minutes, and the assay was initiated by the addition of 10 μL of 10 μM ATP. Following the 60-minute incubation, the assay mixtures were quenched by the addition of 100 μL of 25% TCA, the plate was mixed on a rotary shaker for 1 minute, and the product was captured on a Perkin-Elmer GF/B filter plate using a Tomtec Mach III Harvester. After sealing the bottom of the plate, […] of Bio-Safe II (Research Products International) scintillation cocktail were added to each well and the plate was top-sealed and counted in a Topcount NXT (Packard).
`CCCS(=O)(=O)Nc1ccc(F)c(C(=O)Nc2cnc3cc(OCCOC)nn3c2)c1F` [Example 16, 2,6-difluoro-N-(2-(2-methoxyethoxy)pyrazolo[1,5-a]pyrimidin-6-yl)-3-(propylsulfonamido)benzamide] had a pIC50 of more than 6.82. To `CCCS(=O)(=O)Nc1ccc(F)c(C(=O)Nc2cnc3cc(SC)nn3c2)c1F` [Example 14, 2,6-difluoro-N-(2-(methylthio)pyrazolo[1,5-a]pyrimidin-6-yl)-3-(propylsulfonamido)benzamide] belongs more than 6.82; to `COc1cc2ncc(NC(=O)c3c(F)ccc(NS(=O)(=O)CC(C)C)c3F)cn2n1` [Example 25, 2,6-difluoro-N-(2-methoxypyrazolo [1,5-a]pyrimidin-6-yl)-3-(2-methylpropyl-sulfonamido) benzamide], more than 6.82; to `CCCS(=O)(=O)Nc1ccc(Cl)c(C(=O)Nc2cnc3cc(OC)nn3c2)c1F` [Example 19, 6-chloro-2-fluoro-N-(2-methoxypyrazolo [1,5-a]pyrimidin-6-yl)-3-(propylsulfonamido) benzamide], more than 6.82. Under `CCCS(=O)(=O)Nc1ccc(F)c(C(=O)Nc2cnc3cc(C4CCNCC4)nn3c2)c1F` [Example 4, 2,6-difluoro-N-(2-(piperidin-4-yl)pyrazolo[1,5-a]pyrimidin-6-yl)-3-(propylsulfonamido)benzamide] stands more than 6.52.

In turn, `CCCS(=O)(=O)Nc1ccc(F)c(C(=O)Nc2cnc3cc(-c4ccc(C)cc4)nn3c2)c1F` [Example 8, 2,6-difluoro-3-(propylsulfonamido)-N-(2-p-tolylpyrazolo[1,5-a]pyrimidin-6-yl)benzamide] showed a pIC50 of more than 6.82. Under `CCCS(=O)(=O)Nc1ccc(F)c(C(=O)Nc2cnc3cc(C4CC4)nn3c2)c1F` [Example 28, N-(2-cyclopropylpyrazolo [1,5-a]pyrimidin-6-yl)-2,6-difluoro-3-(propylsulfonamido) benzamide] stands more than 6.82; under `CCCS(=O)(=O)Nc1ccc(F)c(C(=O)Nc2cnc3cc(-c4cccc(F)c4)nn3c2)c1F` [Example 9, 2,6-difluoro-N-(2-(3-fluorophenyl)pyrazolo[1,5-a]pyrimidin-6-yl)-3-(propylsulfonamido)benzamide], more than 6.82; under `CCCS(=O)(=O)Nc1ccc(F)c(C(=O)Nc2cnc3cc(OCCO)nn3c2)c1F` [Example 15, 2,6-difluoro-N-(2-(2-hydroxyethoxy)pyrazolo[1,5-a]pyrimidin-6-yl)-3-(propylsulfonamido)benzamide], more than 6.82. Under `CCCS(=O)(=O)Nc1ccc(F)c(C(=O)Nc2cnc3cc(C)nn3c2)c1F` [Example 26, 2,6-difluoro-N-(2-methylpyrazolo [1,5-a]pyrimidin-6-yl)-3-(propylsulfonamido) benzamide] stands more than 6.82; under `CCCS(=O)(=O)Nc1ccc(F)c(C(=O)Nc2cnc3cc(-c4cnn(C)c4)nn3c2)c1F` [Example 12, 2,6-difluoro-N-(2-(1-methyl-1H-pyrazol-4-yl)pyrazolo[1,5-a]pyrimidin-6-yl)-3-(propylsulfonamido)benzamide], more than 6.82; under `CCCS(=O)(=O)Nc1ccc(F)c(C(=O)Nc2cnc3cc(OCC)nn3c2)c1F` [Example 3, N-(2-ethoxypyrazolo[1,5-a]pyrimidin-6-yl)-2,6-difluoro-3-(propylsulfonamido)benzamide], more than 6.82.

Turning to `CCCS(=O)(=O)Nc1ccc(F)c(C(=O)Nc2cnc3cc(N4CCOCC4)nn3c2)c1F` [Example 36, 2,6-difluoro-N-(2-morpholinopyrazolo [1,5-a]pyrimidin-6-yl)-3-(propylsulfonamido) benzamide], the pIC50 is more than 6.52. Regarding `CCCS(=O)(=O)Nc1ccc(F)c(C(=O)Nc2cnc3ccnn3c2)c1F` [Example 27, 2,6-difluoro-3-(propylsulfonamido)-N-(pyrazolo[1,5-a]pyrimidin-6-yl)benzamide], the pIC50 was more than 6.52.

`COc1cc2ncc(NC(=O)c3c(F)ccc(NS(=O)(=O)CCCF)c3F)cn2n1` [Example 21, 2,6-difluoro-3-(3-fluoropropyl-sulfonamido)-N-(2-methoxypyrazolo [1,5-a]pyrimidin-6-yl)benzamide]: the pIC50 was more than 6.82. To `CCCS(=O)(=O)Nc1ccc(F)c(C(=O)Nc2cnc3cc(-c4cnn(CCO)c4)nn3c2)c1F` [Example 13, 2,6-difluoro-N-(2-(1-(2-hydroxyethyl)-1H-pyrazol-4-yl)pyrazolo[1,5-a]pyrimidin-6-yl)-3-(propylsulfonamido)benzamide] belongs more than 6.82; to `CCCS(=O)(=O)Nc1ccc(Cl)c(C(=O)Nc2cnc3cc(-c4ccccc4)nn3c2)c1F` [Example 33, 6-chloro-2-fluoro-N-(2-phenylpyrazolo [1,5-a]pyrimidin-6-yl)-3-(propylsulfonamido) benzamide], more than 6.82. To `CCCS(=O)(=O)Nc1ccc(F)c(C(=O)Nc2cnc3cc(OC)nn3c2)c1Cl` [Example 20, 2-chloro-6-fluoro-N-(2-methoxypyrazolo [1,5-a]pyrimidin-6-yl)-3-(propylsulfonamido) benzamide] belongs more than 6.82. Under `CCCS(=O)(=O)Nc1ccc(F)c(C(=O)Nc2cnc3cc(NC)nn3c2)c1F` [Example 35, 2,6-difluoro-N-(2-(methylamino)pyrazolo[1,5-a]pyrimidin-6-yl)-3-(propylsulfonamido) benzamide] stands more than 6.82. Take `CCCS(=O)(=O)Nc1ccc(F)c(C(=O)Nc2cnc3cc(C4CCCC4)nn3c2)c1F` [Example 30, N-(2-cyclopentylpyrazolo [1,5-a]pyrimidin-6-yl)-2,6-difluoro-3-(propylsulfonamido) benzamide]: the pIC50 is more than 6.82. To `CCCS(=O)(=O)Nc1ccc(F)c(C(=O)Nc2cnc3cc(OC(C)C)nn3c2)c1F` [Example 2, 2,6-difluoro-N-(2-isopropoxypyrazolo[1,5-a]pyrimidin-6-yl)-3-(propylsulfonamido)benzamide] belongs more than 6.82; to `CCCS(=O)(=O)Nc1ccc(F)c(C(=O)Nc2cnc3cc(CC)nn3c2)c1F` [Example 29, N-(2-ethylpyrazolo[1,5-a]pyrimidin-6-yl)-2,6-difluoro-3-(propylsulfonamido) benzamide], more than 6.82.

`CCCS(=O)(=O)Nc1ccc(F)c(C(=O)Nc2cnc3cc(NC(C)C)nn3c2)c1F` [Example 18, 2,6-difluoro-N-(2-(isopropylamino)pyrazolo[1,5-a]pyrimidin-6-yl)-3-(propylsulfonamido)benzamide] had a pIC50 of more than 6.52. Under `CCCS(=O)(=O)Nc1ccc(F)c(C(=O)Nc2cnc3cc(-c4ccc(Cl)cc4)nn3c2)c1F` [Example 6, N-(2-(4-chlorophenyl)pyrazolo[1,5-a]pyrimidin-6-yl)-2,6-difluoro-3-(propylsulfonamido)benzamide] stands more than 6.82; under `CCCS(=O)(=O)Nc1ccc(F)c(C(=O)Nc2cnc3cc(-c4ccc(F)cc4)nn3c2)c1F` [Example 7, 2,6-difluoro-N-(2-(4-fluorophenyl)pyrazolo[1,5-a]pyrimidin-6-yl)-3-(propylsulfonamido)benzamide], more than 6.82. Under `CCCS(=O)(=O)Nc1ccc(F)c(C(=O)Nc2cnc3cc(C(F)(F)F)nn3c2)c1F` [Example 32, 2,6-difluoro-3-(propylsulfonamido)-N-(2-(trifluoromethyl)pyrazolo[1,5-a]pyrimidin-6-yl)benzamide] stands more than 6.82. To `CCCS(=O)(=O)Nc1ccc(F)c(C(=O)Nc2cnc3cc(C4CCOC4)nn3c2)c1F` (stereo not drawn) [Example 31, 2,6-difluoro-3-(propylsulfonamido)-N-(2-(tetrahydrofuran-3-yl)pyrazolo[1,5-a]pyrimidin-6-yl)benzamide] belongs more than 6.52.
